Data: article PMC8708704, “Discovery of New Chemical Tools against Leishmania amazonensis via the MMV Pathogen Box” (Pharmaceuticals, 2021)
Like-named read-outs stand apart in the source and are kept apart here.

How the values were obtained:
[1] = system: Leishmania amazonensis promastigotes; test: Leishmanicidal activity against promastigotes (alamarBlue assay; screening at 10 µM and IC50); format: cell-based; settings: for IC50 / inhibition at 10 µM: 72 h; for IC50: alamarBlue, read-out: Leishmania amazonensis Promastigotes IC50; for inhibition at 10 µM: first screening, read-out: % of inhibition at 10 µM (against L. amazonensis promastigotes); for Selectivity Index (CC50/IC50), promastigotes: macrophage CC50 / promastigote IC50
Experimental: For the experiments, promastigotes of Leishmania amazonensis strain (MHOM/BR/77/LTB0016) were used; they were maintained in RPMI 1640 medium (Gibco, Massachusetts, USA) at 26 °C. […] Subsequently, the plates were analyzed on an EnSpire multimode plate reader (PerkinElmer, MA, USA) to measure their fluorescence after 72 h. […] To this end, serial dilutions were performed in 96 well plates, and incubated with the parasites for 72 h after adding alamarBlue®. Next, the plates were analyzed on the EnSpire plate reader and the IC50 values were calculated by using SigmaPlot 14.0 (Systat Software Inc., Chicago, IL, USA). Each concentration was tested in duplicate and in three independent experiments for all the compounds.

[2] = system: Leishmania amazonensis intracellular amastigote; test: Intracellular amastigote activity (parasite rescue and transformation assay); format: cell-based; settings: for IC50: Leishmania amazonensis, Macrophage, 24 h treatment of infected macrophages, rescue 72 h, read-out: Leishmania amazonensis Intracellular Amastigote IC50; for Selectivity Index (CC50/IC50), intracellular amastigote: macrophage CC50 / amastigote IC50
Experimental: The intracellular amastigote activity was measured by parasite rescue and transformation assay, also performed according to Jain et al. […] The macrophages were placed in a 96 well plate at a density of 2 × 10^5/mL in DMEM and incubated for 5 h. […] After the incubation, the excess promastigotes were washed off and serial dilutions of the compounds were added. After 24 h of incubation, we removed the medium and added 30 μL of Schneider medium with 0.05% SDS to break the macrophages. The plate was shaken for 30 s and a further 180 μL of medium was added to each well. The plates were then incubated at 26 °C for 72 h for the transformation of the rescued amastigote into promastigotes. AlamarBlue® was added and the plates were measured and analyzed as discussed above.

[3] = system: Leishmania amazonensis promastigotes; test: ATP levels (CellTiter-Glo); format: cell-based; settings: IC90 of the compounds, 24 h
Experimental: To detect alterations due to the different treatments on the cellular ATP levels, CellTiter-Glo (Promega) was utilized. […] Finally, luminescence was measured on the EnSpire spectrophotometer (Perkin Elmer). The experiment was performed at least three times in duplicate on different days.

[4] = system: L. amazonensis promastigotes; test: Reactive oxygen species detection (CellROX Deep Red); format: cell-based, Leishmania amazonensis; settings: IC90 of the compounds, 24 h
Experimental: After 30 min in darkness, the cells were observed under a fluorescent inverted microscope EVOS FL (Life Technologies, Thermo Fisher Scientific, Waltham, MA, USA). This staining was performed three times in independent tests. A positive control was performed as the internal control and corresponded to cells in which ROS production was achieved through the incubation of parasites with 600 µM hydrogen peroxide 30 min before detection.

[5] = system: L. amazonensis promastigotes; test: Phosphatidylserine externalization (annexin V / propidium iodide, Tali); format: cell-based, Leishmania amazonensis; settings: IC90, 24 h (Figure 4 legend: 48 h)
Excerpt: To measure the level of population that experiments phosphatidylserine externalization from the inner to the outer part of the cytoplasmic membrane, an Apoptosis kit for Tali (Invitrogen, Thermo Fisher Scientific, Waltham, MA, USA) was utilized. The kit employs annexin-v, which binds to the external phosphatidylserine, and propidium iodide, that penetrates dead cells, to classify the population of the cells as: alive ([…]), dead (propidium stained), and apoptotic (annexin stained). […] A minimum of three independent experiments were performed for this assay. The cells were then quantified by the image-based cytometer Tali® (Life Technologies, Thermo Fisher Scientific, Waltham, MA, USA).

[6] = system: CYP2C9; parameters: method as in mmv.org; settings: human cytochrome; ref mmv.org; cited from earlier work
[7] = system: CYP2D6; parameters: method as in mmv.org; settings: human cytochrome; ref mmv.org; cited from earlier work
[8] = parameters: method as in mmv.org; settings: ref mmv.org; cited from earlier work
[9] = system: intracellular amastigotes of L. donovani; settings: cited from earlier work
[10] = system: Trypanosoma brucei brucei trypomastigotes; parameters: method as in PMID 28674055, PMID 19091562; settings: cited from earlier work
[11] = Cytotoxic activity against murine macrophages (alamarBlue); settings: mouse, J774A.1 murine macrophages
[12] = system: promastigotes; settings: read-out: IC50 against promastigotes, cited from earlier work
[13] = system: intracellular amastigotes; settings: read-out: IC50 against intracellular amastigotes, cited from earlier work
[14] = system: thioredoxin reductase; parameters: method as in PMID 18532880; settings: cited from earlier work
[15] = system: L. donovani promastigotes; parameters: method as in PMID 32280200; settings: cited from earlier work
[16] = system: T. evansi trypomastigotes; parameters: method as in PMID 32112721; settings: cited from earlier work
[17] = system: NADPH oxidase 4; parameters: method as in PMID 20731357; settings: cited from earlier work
[18] = system: T. cruzi intracellular amastigotes; parameters: method as in PMID 19091562; settings: cited from earlier work
[19] = system: Plasmodium falciparum; parameters: method as in PMID 19091562; settings: cited from earlier work
[20] = system: methionine aminopeptidase; parameters: method as in PMID 28674055; settings: cited from earlier work

IC50 [2] [µM]	SMILES	IC50 ([1]; Leishmania amazonensis) [µM]	inhibition at 10 µM ([1]; Leishmania amazonensis) [%]	Selectivity Index (CC50/IC50), promastigotes [1]	Selectivity Index (CC50/IC50), intracellular amastigote [2]	ATP levels [3]	ROS accumulation (CellROX Deep Red fluorescence) [4]	Dead population (propidium iodide stained) [5]	Translocation of phosphatidylserine, part of the parasite population [5]	IC50 [6] [µM]	IC50 [7] [µM]	Glutathione Reactivity [8]	Activity against Trypanosoma brucei brucei trypomastigotes [10]	CC50 at 24 h [11] [µM]	IC50 [1] [µM]	further results
1.25 ± 0.28	C[C@H](c1ccc2c(c1)CCCC2)N(C)c1ncc2c(N)nc(N)nc2n1 [Compound 5, 2-N-Methyl-2-N-[(1R)-1-(5,6,7,8-tetrahydronaphthalen-2-yl)ethyl]pyrimido [4,5-d]pyrimidine-2,5,7-triamine]	0.59 ± 0.08	90	>17.06	>8.00	strong decrease	too damaged to contain the dye	higher percentage	higher than 50%	> 20	> 20	Medium	activity	> 10	–	Anti-leishmanial activity (L. donovani) ([9]; stage not clearly stated for this compound): activity
2.5 ± 0.27	CN1CCC(NCc2cccc(-c3ccc(S(=O)(=O)NCc4ccccc4)cc3)c2)CC1 [Compound 7, N-Benzyl-4-[3-[[(1-methylpiperidin-4-yl)amino]methyl]phenyl]benzenesulfonamide]	< 2	91	>5.44	>4.00	–	accumulation of ROS	–	–	> 20	> 20	No GSH adduct	activity	> 10	1.84 ± 0.14	–
6.9 ± 1.79	O=C(Nc1ccc(N2CCNCC2)cc1)c1ccn2ncc(-c3cccc(Cl)c3)c2n1 [Compound 9, 3-(3-Chlorophenyl)-N-(4-piperazin-1-ylphenyl)pyrazolo [1,5-a]pyrimidine-5-carboxamide]	0.77 ± 0.01	91	9.35	1.05	–	accumulation of ROS	–	–	> 20	> 20	No GSH adduct	activity	7.22 ± 2.36	–	Activity against L. donovani promastigotes [15]: activity; Activity against T. evansi trypomastigotes [16]: active; Inhibition of NADPH oxidase 4 [17]: inhibits

The next lines start with the compound.

SMILES	IC50 [2] [µM]	IC50 ([1]; Leishmania amazonensis) [µM]	inhibition at 10 µM ([1]; Leishmania amazonensis) [%]	Selectivity Index (CC50/IC50), promastigotes [1]	Selectivity Index (CC50/IC50), intracellular amastigote [2]	ATP levels [3]	ROS accumulation (CellROX Deep Red fluorescence) [4]	Dead population (propidium iodide stained) [5]	Translocation of phosphatidylserine, part of the parasite population [5]	IC50 [6] [µM]	IC50 [7] [µM]	Glutathione Reactivity [8]	Activity against Trypanosoma brucei brucei trypomastigotes [10]	CC50 at 24 h [11] [µM]	IC50 [1] [µM]	further results
CCCCCCCCCCCCCCCCOP(=O)([O-])OCC[N+](C)(C)C [Miltefosine]	–	–	–	11.14	23.14	–	–	–	–	–	–	–	–	72.2 ± 3.06	–	IC50 ([12]; ref Alonso et al. [15]): 7.8 µM; IC50 ([12]; ref Trinconi et al. [16]): 16.8 µM; IC50 ([13]; ref Alonso et al. [15]): 1.8 µM; IC50 ([13]; ref Trinconi et al. [16]): 2.6 µM
COc1cccc(-n2nnnc2S(=O)(=O)Cc2ccccc2)c1 [Compound 3, 5-(Benzylsulfonyl)-1-(3-methoxyphenyl)-1H-tetrazole]	4.78 ± 1.2	< 2	91	–	1.68	strong decrease	–	higher percentage	higher than 50%	> 20	15	Medium	–	8.02 ± 0.93	1.33 ± 0.12	Interference with thioredoxin reductase [14]: interferes
c1ccc(-c2nc(NC3CCCCC3)cc(C3CC3)n2)nc1 [Compound 10, N-Cyclohexyl-6-cyclopropyl-2-pyridin-2-ylpyrimidin-4-amine]	1.33 ± 0.36	< 2	90	>5.40	>7.52	less pronounced decrease	accumulation of ROS	–	–	> 20	> 20	No GSH adduct	activity	> 10	1.85 ± 0.39	Activity against intracellular amastigotes of L. donovani [9]: activity; Activity against T. cruzi intracellular amastigotes [18]: active; Activity against Plasmodium falciparum [19]: active; Inhibition of methionine aminopeptidase [20]: inhibitor
